In patent publication US20260297081A1, “COMPOUNDS AND METHODS OF TREATING CANCERS” (Cullgen Inc., priority 2023, published 2026):

Tests used:
Type in all cases: cell-based
[1] = tested on: CCND1, CCND3, and CDK4 in MCF7 cells; assay: Immunoblot of CCND1, CCND3 and CDK4 protein levels in MCF7 cells under serum starvation (FIG. 1B, 24 hours); conditions: MCF7, reduction of CCND1, CCND3, and CDK4 protein levels, serum starvation, 24 hours
Protocol: (§1) Specific exemplary heterobifunctional compounds were characterized in Calu-1, MCF7, T47D and other cells. Cells that express cyclin D1-3 and CDK4/6 proteins were treated with heterobifunctional compounds disclosed herein at indicated concentrations. MCF7 cells were deprived of serum for 2 hours followed by the treatment with heterobifunctional compounds. Cells were collected, lysed and subject to immunoblotting using an antibody specific to CCND1, CCND2, CCND3, CDK4, or FoxM1, cyclin A2, or phosphorylated Rb (S807/811) proteins. Tubulin or GAPDH was used as the loading control. DMSO treatment was used as the negative control.

p-Rb = assay: Immunoblotting of Rb phosphorylation (FIG. 1A-1B); conditions: Calu-1 (4 hours), MCF7 (24 hours)
Protocol: (§2) Calu-1 cells were treated with heterobifunctional compound CPD-10, or CDK4/6 inhibitor palbociclib at indicated concentrations for 4 hours (FIG. 1A). MCF7 cells were deprived of serum for 2 hours followed by treatment with CPD-10, or palbociclib at indicated concentrations for 24 hours (FIG. 1B).
(§3) Antibody and Reagent Anti-cyclin D1 (29785), anti-cyclin D2 (3741S), anti-cyclin D3 (2936S), anti-CDK4 (127905), anti-CDK6 (3136S), anti-phospho-Rb (8516S), anti-FoxM1 (54365), anti-cyclinA2(4656S), anti-vinculin antibody (187995) antibodies were purchased from Cell Signaling Technology. HRP-conjugated anti-α-tubulin antibody and anti-α-GAPDH antibody were purchased from GNI. Media, and other cell culture reagents were purchased from Thermo Fisher Scientific. CellTiter-Glo Luminescent Assay kit was purchased from Promega.
(§4) Calu-1, T47D, MCF7, HCC1428 and other cells were cultured at 37° C. with 5% CO2 in RPMI 1640 or DMEM medium supplemented with 10% fetal bovine serum. Cells were authenticated using the short tandem repeat (STR) assays. […]
(§5) Cultured cells were washed with cold PBS once and lysed in cold RIPA buffer supplemented with protease inhibitors and phosphatase inhibitors (Beyotime Biotechnology). […] Total protein concentrations in the lysates were determined following BCA assays (Beyotime Biotechnology). […] Protein bands were quantitated using the Image Lab software provided by Bio-Rad.

[2] = tested on: T47D palbo-resistant cells; assay: Cell viability in T47D palbociclib-resistant model (FIG. 4); conditions: 10-point serial dilution, 6 days
Protocol: T47D cells were cultured long-term to resistance in the presence of 1 μM Palbociclib. Palbo resistance was determined by CellTiter-Lumi cell viability assay. T47D parental or palbo-resistant cells were treated with palbociclib, or heterobifunctional compounds CPD-10 or CPD-39 following a 10-point serial dilution for 6 days.
(§6) Calu-1, T47D, MCF7, HCC1428 and other cells were cultured at 37° C. with 5% CO2 in RPMI 1640 or DMEM medium supplemented with 10% fetal bovine serum. Cells were authenticated using the short tandem repeat (STR) assays. Mycoplasma test results were negative. For palbo-resistant cell model, T47D cells were cultured long-term to resistance in the presence of 1 μM Palbociclib. Cells were deemed resistant when growing in the presence of Palbo at the same rate as parental cells.
Cells were seeded at a density of 2,000-5,000 cells per well in 96-well assay plates and treated with test compounds following a 10-point serial dilution for 3-6 days. Cell viability was determined using the CellTiter-Lumi assay kit according to the manufacturer's instructions. The dose-response curves were determined and IC50 values were calculated using the GraphPad Prism software following a nonlinear regression (least squares fit) method. Data presented was mean±standard deviation (SD)unless otherwise indicated.

T47D cells = assay: Annexin V apoptosis flow cytometry, T47D (FIG. 3A); conditions: 6 days
Protocol: (§7) T47D cells were treated with DMSO, palbociclib, heterobifunctional compound CPD-10 for 6 days at doses approximating IC50 and IC90 concentrations as indicated (FIG. 3A). HCC1428 cells were treated with DMSO, palbociclib, heterobifunctional compound CPD-10, or its negative control compound CPD-143 for 6 days at doses approximating IC90 concentrations as indicated (FIG. 3B). Cells were harvested by trypsinization, staining was carried out using the Annexin V Apoptosis Detection Kit.
(§8) Assays were performed on the CytoFLEX Cytometer (Beckman Coulter), and data were analyzed using CytExpert software. For cell death and apoptosis analysis, cells were harvested by trypsinization, staining was carried out using the Annexin V Apoptosis Detection Kit (BD Biosciences). Briefly, cells were resuspended in 1× binding buffer and incubated with fluorochrome-conjugated Annexin V and 7-AAD for 15 min in darkness at room temperature.

CCND3 = assay: Immunoblotting of CCND3 protein level in Calu-1 and MCF7 cells (FIG. 1A-1B)
Protocol: as §2, §3, §6
(§9) Cultured cells were washed with cold PBS once and lysed in cold RIPA buffer supplemented with protease inhibitors and phosphatase inhibitors (Beyotime Biotechnology). The solutions were then incubated at 4 ? for 30 min with gentle agitation to fully lysed cells. Cell lysates were centrifuged at 13,000 rpm for 10 min at 4 ? and pellets were discarded. Total protein concentrations in the lysates were determined following BCA assays (Beyotime Biotechnology). Cell lysates were mixed with Laemmli loading buffer and heated at 99° C. for 5 min. Proteins were resolved on SDS-PAGE and visualized using Western ECL Substrate kits on a ChemiDoc MP Imaging system (Bio-Rad). Protein bands were quantitated using the Image Lab software provided by Bio-Rad.

CDK4 = CDK4 (Homo sapiens, UniProt P11802+Q16531); assay: CDK4 percentage degradation in Calu-1 cells (Table 6); set-up: Cells that express cyclin D1-3 and CDK4/6 proteins were treated with heterobifunctional compounds; endogenous in cells; host or cells: Calu-1; conditions: 16 hours
Sequence of CDK4 (P11802 2-303 limits assumed): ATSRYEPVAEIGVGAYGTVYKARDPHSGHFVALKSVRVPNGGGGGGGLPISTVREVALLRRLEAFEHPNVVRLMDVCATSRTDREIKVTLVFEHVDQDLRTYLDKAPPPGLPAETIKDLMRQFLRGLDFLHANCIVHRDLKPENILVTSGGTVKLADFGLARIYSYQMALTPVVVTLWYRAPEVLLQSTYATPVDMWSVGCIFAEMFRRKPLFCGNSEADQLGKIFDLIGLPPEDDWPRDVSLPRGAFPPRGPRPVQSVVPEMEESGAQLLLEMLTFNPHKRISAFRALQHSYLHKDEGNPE
Sequence of CDK4 (P24385 whole entry partner): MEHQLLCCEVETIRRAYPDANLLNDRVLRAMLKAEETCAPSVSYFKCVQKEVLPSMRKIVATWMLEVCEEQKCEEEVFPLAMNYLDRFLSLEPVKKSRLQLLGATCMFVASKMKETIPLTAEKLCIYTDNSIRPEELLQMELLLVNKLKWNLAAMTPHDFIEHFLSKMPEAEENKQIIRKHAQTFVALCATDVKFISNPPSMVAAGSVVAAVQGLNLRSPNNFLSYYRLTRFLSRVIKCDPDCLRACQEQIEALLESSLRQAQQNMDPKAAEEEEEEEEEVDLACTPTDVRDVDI
Sequence of CDK4 (Q16531 2-1140 limits assumed): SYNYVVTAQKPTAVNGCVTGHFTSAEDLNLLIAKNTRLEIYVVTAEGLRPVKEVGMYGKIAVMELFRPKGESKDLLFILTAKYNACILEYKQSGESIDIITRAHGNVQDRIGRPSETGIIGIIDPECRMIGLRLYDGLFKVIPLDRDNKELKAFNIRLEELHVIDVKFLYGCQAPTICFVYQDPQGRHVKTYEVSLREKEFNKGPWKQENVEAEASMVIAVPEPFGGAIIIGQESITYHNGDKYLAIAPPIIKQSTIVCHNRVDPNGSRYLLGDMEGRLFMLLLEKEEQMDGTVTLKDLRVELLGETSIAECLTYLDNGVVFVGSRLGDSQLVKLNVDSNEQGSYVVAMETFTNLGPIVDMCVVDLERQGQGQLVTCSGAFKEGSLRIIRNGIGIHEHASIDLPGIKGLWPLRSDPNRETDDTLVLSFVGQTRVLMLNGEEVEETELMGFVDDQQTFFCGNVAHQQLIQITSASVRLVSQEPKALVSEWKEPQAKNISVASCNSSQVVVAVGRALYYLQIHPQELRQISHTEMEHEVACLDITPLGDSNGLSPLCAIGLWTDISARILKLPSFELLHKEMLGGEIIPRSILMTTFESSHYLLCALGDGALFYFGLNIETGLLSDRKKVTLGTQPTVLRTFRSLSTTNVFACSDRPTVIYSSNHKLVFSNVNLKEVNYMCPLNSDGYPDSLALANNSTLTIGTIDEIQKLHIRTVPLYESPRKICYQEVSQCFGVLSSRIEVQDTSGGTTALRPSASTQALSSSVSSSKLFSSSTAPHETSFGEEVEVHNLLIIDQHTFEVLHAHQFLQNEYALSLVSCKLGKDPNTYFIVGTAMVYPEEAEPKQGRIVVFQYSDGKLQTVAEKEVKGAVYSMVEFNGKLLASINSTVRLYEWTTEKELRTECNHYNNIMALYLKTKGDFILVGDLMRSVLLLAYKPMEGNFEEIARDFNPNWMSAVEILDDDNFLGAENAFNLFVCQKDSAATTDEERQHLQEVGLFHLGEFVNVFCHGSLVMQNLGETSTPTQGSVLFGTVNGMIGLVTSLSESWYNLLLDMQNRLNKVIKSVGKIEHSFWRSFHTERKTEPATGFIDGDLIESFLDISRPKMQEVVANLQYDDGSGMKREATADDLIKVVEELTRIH
Summary of the method: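 Calu-1 cells exposed to heterobifunctional compounds at 40 nM or 200 nM for 16 h. Cyclin D1 and CDK4 levels measured by Western blot of RIPA lysates (BCA-normalised loading), bands quantified by densitometry and expressed as percentage degradation.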

HCC1428 cells = assay: Annexin V apoptosis flow cytometry, HCC1428 (FIG. 3B); conditions: HCC1428, dose approximating IC90, 6 days
Protocol: as §7, §8

[3] = tested on: CCND1, CCND3, and CDK4 in Calu-1 cells; assay: Immunoblot of CCND1, CCND3 and CDK4 protein levels in Calu-1 cells (FIG. 1A, 4 hours); conditions: Calu-1, reduction of CCND1, CCND3, and CDK4 protein levels
Protocol: as §1

CCND1 = assay: Immunoblotting of CCND1 protein level in Calu-1 and MCF7 cells (FIG. 1A-1B)
Protocol: as §2, §3, §6, §9

T47D parental cells = assay: CellTiter-Lumi cell viability assay, T47D parental cells, 6 days (FIG. 4); conditions: Homo sapiens, 144 h
Protocol: Furthermore, we developed one ER^+ breast cancer T47D model with acquired resistance after long period of treatment with 1 μM palbociclib (over IC90). Cells were deemed resistant when growing in the presence of palbo at the same rate as parental cells. Palbo resistance was determined by CellTiter-Lumi cell viability assay (FIG. 4, IC50>10,000 nM).

cyclin A2 = assay: Immunoblotting of cyclin A2 protein level (FIG. 1A-1B); conditions: Calu-1 (4 hours), MCF7 (24 hours)
Protocol: as §2, §3, §4, §5

FoxM1 = assay: Immunoblotting of FoxM1 protein level (FIG. 1A-1B); conditions: Calu-1 (4 hours), MCF7 (24 hours)
Protocol: as §2, §3, §4, §5

[4] = MCF7 cells, serum deprived 2 hours, treated 24 hours

SMILES: CNc1ccc(C(=O)Nc2ccc(N(C)C)nn2)c(NCCCCCCCNC(=O)CN2CCN(c3ccc(Nc4ncc5c(C)c(C(C)=O)c(=O)n(C6CCCC6)c5n4)nc3)CC2)n1 [CPD-10, 2-((7-(2-(4-(6-((6-acetyl-8-cyclopentyl-5-methyl-7-oxo-7,8-dihydropyrido[2,3-d]pyrimidin-2-yl)amino)pyridin-3-yl)piperazin-1-yl)acetamido)heptyl)amino)-N-(6-(dimethylamino)pyridazin-3-yl)-6-(methylamino)nicotinamide]
- DC50 [1]: < 20 nM
- Rb phosphorylation (p-Rb): inhibited downstream FoxM1 and cyclin A2 protein levels, and Rb phosphorylation in a concentration-dependent manner
- cell viability in palbociclib-resistant model [2]: remained effective in T47D palbo-resistant model
- Annexin V+ population (T47D cells; 15 nM): 20.9%
- Annexin V+ population (T47D cells; 200 nM): 62.2%
- CCND3 protein level (CCND3; Calu-1 cells, 4 hours): reduced CCND1, CCND3, and CDK4 protein levels in a concentration-dependent manner in both cell lines
- CCND3 protein level (CCND3; [4]): reduced CCND1, CCND3, and CDK4 protein levels in a concentration-dependent manner in both cell lines
- inhibition at 0.04 µM (CDK4; 40 nM): 50 to 80%
- inhibition at 0.2 µM (CDK4; 200 nM): > 80%
- Annexin V+ population (HCC1428 cells): 55.8%
- DC50 [3]: < 5 nM
- CCND1 protein level (CCND1; Calu-1 cells, 4 hours): reduced CCND1, CCND3, and CDK4 protein levels in a concentration-dependent manner in both cell lines
- CCND1 protein level (CCND1; [4]): reduced CCND1, CCND3, and CDK4 protein levels in a concentration-dependent manner in both cell lines
- IC50 (T47D parental cells): 19.5 nM
- cyclin A2 protein level (cyclin A2): inhibited downstream FoxM1 and cyclin A2 protein levels, and Rb phosphorylation in a concentration-dependent manner
- FoxM1 protein level (FoxM1): inhibited downstream FoxM1 and cyclin A2 protein levels, and Rb phosphorylation in a concentration-dependent manner
